Source: patent US11993587B2, “Substituted pyrazolo-pyrazines and their use as GluN2B receptor modulators” (JANSSEN PHARMACEUTICA NV, priority 2019, dated 2024)

Target: T1, human GluN1/GluN2B NMDA receptors (Homo sapiens, UniProt Q13224)
T1 construct: expressed in transfected cells
Assay: Cell-based calcium flux (FLIPR) assay on cloned human NR1/NR2B ion channels expressed in mammalian cells
Conditions: standard assay, glutamate ~EC40 plus 10 μM glycine, cells expressing human GluN1/GluN2B
Description: Effects of Test Articles on Cloned Human NR1/NR2B Ion Channels Expressed in Mammalian Cells
NMDA receptors are ion channels that are highly permeable to Ca^2+ ions, rendering it possible to monitor NMDA receptor function using cell-based calcium flux assay. In this assay, co-agonists glutamate and glycine are added to cells heterologously expressing human GluN1/GluN2B NMDA receptors to initiate cellular Ca^2+ influx. The time course of the changes in intracellular calcium is measured using a fluorescent dye and a FLIPR (Fluorometric Imaging Plate Reader) device.
Twenty four hours before measurements, the expression of the NMDA receptors in the stable cell line is induced with Tet-On inducible system in the presence of a non-selective NMDA receptor blocker. […] After 1 h incubation at the room temperature, the dye is washed away with the assay buffer (137 mM NaCl (standard assay) or 150 mM (HTS assay), 4 mM KCl (standard assay) or 3 mM (HTS assay), 2 mM CaCl2), 0.01 mM EDTA, 10 mM HEPES and 5 mM D-glucose; pH 7.4) In the FLIPR TETRA reader, various concentrations of the test compounds are added to the cells for 5 min while fluorescence is monitored to detect potential agonist activity. […] The fluorescent signal in the presence of test compounds is quantified and normalized to the signal defined by the appropriate control wells.

T1 sequence (Q13224 27-1484, other chains not shown): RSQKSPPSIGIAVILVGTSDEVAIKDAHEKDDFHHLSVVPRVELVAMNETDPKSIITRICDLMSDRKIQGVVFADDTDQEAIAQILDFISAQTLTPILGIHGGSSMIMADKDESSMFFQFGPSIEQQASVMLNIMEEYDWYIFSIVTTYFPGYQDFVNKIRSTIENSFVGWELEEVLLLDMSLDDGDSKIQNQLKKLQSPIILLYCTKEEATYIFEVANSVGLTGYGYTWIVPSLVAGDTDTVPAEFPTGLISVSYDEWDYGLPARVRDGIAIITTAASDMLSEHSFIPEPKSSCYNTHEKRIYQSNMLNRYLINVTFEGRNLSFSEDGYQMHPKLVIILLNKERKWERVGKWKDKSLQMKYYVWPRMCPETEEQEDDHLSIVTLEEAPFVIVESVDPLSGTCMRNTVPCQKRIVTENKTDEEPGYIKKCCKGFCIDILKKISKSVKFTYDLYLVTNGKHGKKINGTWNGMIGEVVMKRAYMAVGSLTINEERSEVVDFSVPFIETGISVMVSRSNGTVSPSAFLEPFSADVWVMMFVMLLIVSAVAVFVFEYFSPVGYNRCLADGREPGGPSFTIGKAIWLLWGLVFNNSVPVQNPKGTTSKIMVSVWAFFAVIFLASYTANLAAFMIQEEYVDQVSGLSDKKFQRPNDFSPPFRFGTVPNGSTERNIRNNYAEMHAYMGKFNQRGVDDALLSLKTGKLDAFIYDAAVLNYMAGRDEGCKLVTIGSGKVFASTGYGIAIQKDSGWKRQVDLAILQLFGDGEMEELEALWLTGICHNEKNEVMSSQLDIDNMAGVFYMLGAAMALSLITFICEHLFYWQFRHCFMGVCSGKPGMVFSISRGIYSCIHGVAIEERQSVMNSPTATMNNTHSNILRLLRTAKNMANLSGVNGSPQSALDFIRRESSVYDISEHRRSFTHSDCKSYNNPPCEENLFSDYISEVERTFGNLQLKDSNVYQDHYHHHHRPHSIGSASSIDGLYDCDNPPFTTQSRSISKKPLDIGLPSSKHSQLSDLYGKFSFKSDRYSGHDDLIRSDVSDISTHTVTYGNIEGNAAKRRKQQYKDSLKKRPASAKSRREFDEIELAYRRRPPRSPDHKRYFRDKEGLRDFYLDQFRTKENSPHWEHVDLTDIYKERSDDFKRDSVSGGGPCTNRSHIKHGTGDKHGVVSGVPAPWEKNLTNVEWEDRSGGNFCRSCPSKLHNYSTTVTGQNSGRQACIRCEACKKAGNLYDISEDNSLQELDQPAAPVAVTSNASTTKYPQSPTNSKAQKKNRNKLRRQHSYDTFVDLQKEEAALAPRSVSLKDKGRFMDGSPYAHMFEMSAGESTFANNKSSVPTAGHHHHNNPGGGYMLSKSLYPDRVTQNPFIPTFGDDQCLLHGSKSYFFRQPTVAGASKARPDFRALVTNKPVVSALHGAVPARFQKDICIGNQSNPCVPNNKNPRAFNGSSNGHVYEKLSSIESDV

For “2-[6-(4-Fluoro-3-methyl-phenyl)pyrazolo[3,4-b]pyrazin-1-yl]-N,N-dimethyl-acetamide [Example 7]”, the IC50 was 117 nM.

Test system: not listed separately
Assay: Liver microsomal stability (extraction ratio)
Type: in vitro ADME
Conditions: test compound 1 μM, 0.5 mg/mL liver microsomes, NADPH, 37° C.; species not stated (method: mouse, rat, and human)
Description: Protocol for Liver Microsomal Stability (Extraction Ratio)
Liver Microsomal Stability. Microsomal stability studies (Chrovian et al, “1H-Pyrrolo[3,2-b]pyridine GluN2B-Selective Negative Allosteric Modulators”. ACS Med Chem Lett. 2019 Jan. 10; 10(3):261-266) were conducted on a Biomek® FX Robotic Liquid Handling Workstation (Beckman Coulter, Brea, CA), which consists of a 96-channel pipette head, a 12-position workstation deck, and a plate incubator. Test compounds (1 μM) were spiked in a reaction mix consisting of 100 mM potassium phosphate buffer (pH 7.4), 3 mM MgCl2, and 0.5 mg/mL liver microsomes from mouse, rat, and human (BD Gentest). The reaction was brought to 37° C. and initiated by adding NADPH to a final concentration of 1 mM. After mixing on the plate deck, 50 μL aliquots were excised from the reaction plate at 0, 5, 10, 20, 40, and 60 min and quenched with four volumes of acetonitrile spiked with […] of the internal standard phenytoin. Quenched plates were centrifuged at 5700 rpm for 10 min at 4° C., and supernatant was diluted 1:3 in water before LC/MS/MS analysis. The compound half-lives were derived from plots of the ln of percent remaining compound over time to determine the intrinsic clearance. The predicted hepatic clearance was derived from the intrinsic clearance value using equations from the well-stirred model (Current Drug Metabolism, 2008, 9, 940-951), where no correction was made plasma protein binding and the blood to plasma concentration ratio was assumed to be one. The extraction ratio (ER) was calculated by dividing the predicted hepatic clearance by species blood flow (Q), where Q is 90, 55, and 21.7 mL/min/kg for mouse, rat and human, respectively

In order of falling “Extraction Ratio @ 1 μM” value:
1. CN(C)C(=O)Cn1ncc2ncc(-c3ccc(Cl)c(C(F)F)c3)nc21 [Example 12, 2-[6-[4-Chloro-3-(difluoromethyl)phenyl]pyrazolo[3,4-b]pyrazin-1-yl]-N,N-dimethyl-acetamide]  0.54
2. O=C(Cn1ncc2ncc(-c3ccc(F)c(OC(F)F)c3)nc21)N1CC(F)C1 [Example 37, 2-[6-[3-(Difluoromethoxy)-4-fluoro-phenyl]pyrazolo[3,4-b]pyrazin-1-yl]-1-(3-fluoroazetidin-1-yl)ethanone]  0.46
3. O=C(Cn1ncc2ncc(-c3ccc(F)c(OC(F)F)c3)nc21)N1CCC1 [Example 28, 1-(Azetidin-1-yl)-2-[6-[3-(difluoromethoxy)-4-fluoro-phenyl]pyrazolo[3,4-b]pyrazin-1-yl]ethanone]  0.45
4. CN(C)C(=O)Cn1ncc2ncc(-c3ccc(F)c(C(F)F)c3)nc21 [Example 10, 2-[6-[3-(Difluoromethyl)-4-fluoro-phenyl]pyrazolo[3,4-b]pyrazin-1-yl]-N,N-dimethyl-acetamide]  0.41
5. O=C(Cn1nc(F)c2ncc(-c3ccc(F)c(C(F)F)c3)nc21)N1CCC1 [Example 25, 1-(Azetidin-1-yl)-2-[6-[3-(difluoromethyl)-4-fluoro-phenyl]-3-fluoro-pyrazolo[3,4-b]pyrazin-1-yl]ethanone]  0.41
